# Test results reported in US20210352950A1 (priority 2019, published 2021).
# Entries after “also recorded” stand apart in the source; their conditions may differ.
# Tests used:
# HO-1 = HO-1 expression in HCT116 (qPCR, western blot); format: cell-based, human; conditions: HCT116, CTR and STS, hemin 20 μM 12 hours
# Protocol: Cells were washed twice in ice-cold PBS and lysates were prepared in RIPA lysis buffer (50 mM Tris HCl pH 7.4, 150 mM NaCl, 1% NP-40, 0.25% deoxycholic acid, 1 mM EDTA) supplemented with protease and phosphatase inhibitors (protease inhibitor cocktail set III EDTA-free, Calbiochem, Cat. #: S39134; PhosStop, Roche), Samples were sonicated (bioruptor plus, diogenode) and centrifuged at 16.1 g for 30 minutes at 4° C. Tumor tissues were collected and snap frozen in liquid nitrogen immediately after mice were sacrificed, and stored in -80° C. until use. […] Protein concentrations were determined by BCA assay (Thermo Fisher Scientific, Cat. #: 23225). Proteins were diluted in 1× Laemmli sample buffer, boiled at 95° C. for 5 minutes and 30 μg of total proteins were separated by using SDS-PAGE and analyzed by western blotting by standard procedures. […] Membranes were incubated overnight at 4° C. with gentle shaking with the following primary antibodies: […] ADI-SPA894), FTH (1:1000, Cell Signaling, Cat. #: 3998), AMPK (1:1000, Cell Signaling, Cat. #: 2532), phospho-[…] […] Bands intensity was quantified with NIH Image J software (version 1.48v). […] Resulting cDNA (1/20 v/v) was analyzed by real-time polymerase reaction (qRT-PCR) using TaqMan MBG probes with FAM reporter dyes. […]
# FTH = FTH protein expression in cells (western blot); format: cell-based, human and murine; conditions: HCT116, CTR and STS, hemin 20 μM 12 hours
# Protocol: Cells were washed twice in ice-cold PBS and lysates were prepared in RIPA lysis buffer (50 mM Tris HCl pH 7.4, 150 mM NaCl, 1% NP-40, 0.25% deoxycholic acid, 1 mM EDTA) supplemented with protease and phosphatase inhibitors (protease inhibitor cocktail set III EDTA-free, Calbiochem, Cat. #: S39134; PhosStop, Roche), Samples were sonicated (bioruptor plus, diogenode) and centrifuged at 16.1 g for 30 minutes at 4° C. Tumor tissues were collected and snap frozen in liquid nitrogen immediately after mice were sacrificed, and stored in -80° C. until use. […] Protein concentrations were determined by BCA assay (Thermo Fisher Scientific, Cat. #: 23225). Proteins were diluted in 1× Laemmli sample buffer, boiled at 95° C. for 5 minutes and 30 μg of total proteins were separated by using SDS-PAGE and analyzed by western blotting by standard procedures. […] Membranes were incubated overnight at 4° C. with gentle shaking with the following primary antibodies: […] ADI-SPA894), FTH (1:1000, Cell Signaling, Cat. #: 3998), AMPK (1:1000, Cell Signaling, Cat. #: 2532), phospho-[…] AMPK (1:1000, Cell Signaling, Cat. #: 2535), eIF2a (1:1000, Cell signaling, Cat. #: 5324), phospho […] eIF2a (1:1000, Cell signaling, Cat. #: 3597), AKT (1:1000, Cell Signaling, Cat. #: 9272), phospho-[…] […] Bands intensity was quantified with NIH Image J software (version 1.48v).
# [1] = tested on: KRAS mutant CRC cells (HCT116, DLD1, CT26.WT); conditions: for effect on cell death induction by STS and vitamin C cotreatment: STS condition, GSH 5 mM or NAC 5 mM co-treated with vitamin C 350 μM, 24 hours
# HCT116 cells [2] = assay: Muse cell viability assay (percentage of dead cells); conditions: for effect on STS + vitamin C cytotoxicity: HCT116, STS medium supplemented with transferrin, vitamin C 350 μM
# HCT116 cells [3] = assay: MTT assay; format: cell-based, human; conditions: HCT116, 24 hours-STS before and during oxaliplatin 40 μM 24 hours
# Description: The MTT [3-(4,5-Dimethylthiazol-2-yl)-2,5-diphenyltetrazolium bromide] assay is a quantitative colorimetric assay used to determine cell viability (Mosmann, 1983). MTT is characterized by a yellow colour, and upon its reduction to formazan by mitochondrial dehydrogenases, turns into a purple molecule, which has an absorbance peak at 570 nm. The absorbance is proportional to the amount of formazan produced, thus giving a measure of living cells, since the reaction only occur in living and metabolically active cells (Mosmann, 1983).
# To evaluate viability, cells were seeded into a 96-well plate (2000 cells per well) in CTR medium. 24 hours later, cells were rinsed twice in 1×PBS, and CTR or STS medium was added. […] At the end of the experiment, medium was removed and cells were incubated with 100 μl of MTT (Sigma-Aldrich, Cat. #: M2128) solution (0.5 mg/ml, dissolved in medium) per well, for 3 hours at 37° C. in the dark. Next, 100 μl of lysis buffer (10% SDS, HCl 0.01M) were added to each well to dissolve formazan crystals and plates were incubated overnight at 37° C. Absorbance was recorded at the wavelength of 570 nm using a microplate reader (Infinite M200 TECAN). The absorbance values of media background were subtracted from the absorbance of each sample. No-treated samples were used as reference values (100% survival) to normalize the absorbance of treated samples.
# HCT116 cells [4] = assay: Erythrosin B exclusion assay; format: cell-based, human; conditions: HCT116, 24 hours-STS before and during oxaliplatin 40 μM 24 hours
# Protocol: Erythrosin B is a vital dye that is impermeable to biological membranes, thus staining only unviable cells with disintegrated membranes (Kim et al., 2016).
# The next day, cells were rinsed twice in 1×PBS and CTR or STS medium was added. […] Cell death was measured by erythrosine B exclusion assay. Cell suspension was diluted 1:1 with erythrosin B 0.1% in PBS (Sigma-Aldrich, Cat. #: 200964), then cells were counted in a Bürker chamber, and percentage of cell death was calculated as the number of Erythrosin B-positive cells with respect to the total number of cells.
# ROS in HCT116 cells = assay: CellROX reactive oxygen species measurement; format: cell-based, human; conditions: HCT116, GSH one hour prior to vitamin C 1 mM
# Protocol: Intracellular reactive-oxygen species (ROS) were measured using the CellROX oxidative stress reagents (Life Technologies, Cat. #: 10422). CellROX fluorogenic probe is designed to measure reactive-oxygen species (ROS) in live cells. […] For ROS measurement, cells were seeded in 10 cm petri dish (4×10^5 cells in CTR medium). After 24 hours cells were rinsed twice in 1×PBS and CTR or STS medium was added. 24 hours later, cells were trypsinized, resuspended in their respective media, and treated with 1 mM sodium ascorbate and 1 μM CellROX deep red reagent in the dark, for 30 minutes at 37° C. and 5% CO2. Then, fluorescence was immediately analyzed by flow cytometry (Attune NxT flow cytometer). Data were processed by Kaluza analysis software (Beckman coulter, version 2.0). Data were expressed as fold change of the median fluorescent intensity (MFI) of each treated sample versus the MFI of control sample.
molecule,measurement,setting,value
hemin,HO-1 protein expression level,HO-1,increases
same,FTH protein expression level,FTH,increases
same,effect on cancer cell death induced by vitamin C alone or with STS,"[1]; hemin 20 μM 3 hours before vitamin C 350 μM, CTR or STS",able to reverse cancer cell death
apo-transferrin: iron-free transferrin,effect on STS + vitamin C cytotoxicity,HCT116 cells [2],not
"CC(=O)N[C@@H](CS)C(=O)O [NAC, N-acetyl cysteine]",effect on cell death induction by STS and vitamin C cotreatment,[1],able to revert the massive cell death induction
"CC(=O)N(O)CCCCCNC(=O)CCC(=O)N(O)CCCCCNC(=O)CCC(=O)N(O)CCCCCN [DFO, desferrioxamine]",effect on vitamin C-induced cytotoxicity,"HCT116 cells [2]; HCT116, STS, DFO 500 μM pre-treatment, cells washed before vitamin C 350 μM",rescued vitamin C-induced cell cytotoxicity
O=C1[O][Pt]2([NH][C@@H]3CCCC[C@H]3[NH]2)[O]C1=O [oxaliplatin],percentage of metabolically active cells (MTT),HCT116 cells [3],significantly decrease the percentage of metabolically active cells
same,percentage of cell death,HCT116 cells [4],increase the percentage of cell death
holo-transferrin: Iron bound-transferrin,effect on STS + vitamin C cytotoxicity,HCT116 cells [2],able to rescue the observed cytotoxicity; also recorded: reversed STS+vitamin C-mediated toxicity
"N[C@@H](CCC(=O)N[C@@H](CS)C(=O)NCC(=O)O)C(=O)O [GSH, glutathione]",effect on increase in ROS mediated by STS and STS+vitamin C,ROS in HCT116 cells,fully reversed the increase in ROS
same,effect on cell death induction by STS and vitamin C cotreatment,[1],able to revert the massive cell death induction
MnTMPyP,effect on cell death upon STS + vitamin C,"HCT116 cells [2]; HCT116, STS, MnTMPyP 50 μM before vitamin C 350 μM 24 hours",inhibited cell death upon combinatorial treatment
"C=CC1=C(C)c2cc3[n-]c(cc4nc(cc5[n-]c(cc1n2)c(C)c5C=C)C(C)=C4CCC(=O)O)c(CCC(=O)O)c3C.[Zn+2] [ZnPP, zinc protoporphyrin]",susceptibility to vitamin C toxicity,"[1]; control medium, ZnPP 20 μM 3 hours before vitamin C 700 μM 24 hours",more susceptible to vitamin C toxicity
"catalase: Catalase from bovine liver, membrane-impermeable ROS scavenger decomposing hydrogen peroxide (protein, UniProt P00432 2-527, looked up) Catalase: ADNRDPASDQMKHWKEQRAAQKPDVLTTGGGNPVGDKLNSLTVGPRGPLLVQDVVFTDEMAHFDRERIPERVVHAKGAGAFGYFEVTHDITRYSKAKVFEHIGKRTPIAVRFSTVAGESGSADTVRDPRGFAVKFYTEDGNWDLVGNNTPIFFIRDALLFPSFIHSQKRNPQTHLKDPDMVWDFWSLRPESLHQVSFLFSDRGIPDGHRHMNGYGSHTFKLVNANGEAVYCKFHYKTDQGIKNLSVEDAARLAHEDPDYGLRDLFNAIATGNYPSWTLYIQVMTFSEAEIFPFNPFDLTKVWPHGDYPLIPVGKLVLNRNPVNYFAEVEQLAFDPSNMPPGIEPSPDKMLQGRLFAYPDTHRHRLGPNYLQIPVNCPYRARVANYQRDGPMCMMDNQGGAPNYYPNSFSAPEHQPSALEHRTHFSGDVQRFNSANDDNVTQVRTFYLKVLNEEQRKRLCENIAGHLKDAQLFIQKKAVKNFSDVHPEYGSRIQALLDKYNEEKPKNAVHTYVQHGSHLSAREKANL",effect on STS-mediated sensitization to vitamin C,"HCT116 cells [2]; HCT116, STS, catalase 50 U/ml prior to vitamin C 350 μM 24 hours",able to revert STS-mediated sensitization to vitamin C
